In patent US4696920A, “Certain 2-substituted 1,3-propylidenediphosphonate derivatives, pharmaceutical compositions containing them and their use as antihypertensive agents” (priority 1984, dated 1987):

Tests used:
[1] = test system: mean blood pressure in rat; assay: Acute intravenous hypotensive activity in anesthetized rats; format: in vivo, rat (male Wistar)
Description: Male Wistar rats were anesthetized with Pentobarbital (Nembutal, 60 mg/kg i.p.) and heparinized (5 mg/kg i.p.). After tracheotomy the right carotid was cannulated (catheter PE 50); blood pressure was measured with a pressure transducer (Statham P 23 db) and recorded on a polygraph (Beckman).
Animals received 0.5 and 1.5 mg/kg of the test compounds. Less than 100 μl of test compounds dissolved in 0.9% saline were injected in the jugular vein. Highly water insoluble compounds were suspended in 2% Tween-80. Injection of the vehicle alone had no detectable hypotensive effect.
Results presented are expressed as percent decrease in initial mean blood pressure (Mean±SEM).

[2] = test system: drug receptor sites associated with calcium channels; conditions: known calcium antagonists; cited from earlier work
[3] = test system: calcium channel binding site for [^3 H]-Nitrendipine (rat brain membranes); assay: [^3 H]-Nitrendipine binding to rat brain membranes; design: species or system rat (male Wistar); conditions: Table 1a; for Specifically bound [^3 H]-Nitrendipine % of control value: compound concentration 1.0 μM; for Bound ^3 H at 1.0 μM / Bound ^3 H at 0.1 μM: ratio of [^3 H]-Nitrendipine bound at 1.0 and 0.1 μM compound
Description: (§1) Diltiazem hydrochloride was a generous gift from Goedecke A. G.
Suitable dilutions were made in 50 mM Tris-HCl buffer (pH 7.4) containing 150 mM NaCl and 1 mM CaCl2. The ethanol concentration in the final assay never exceeded 0.1%.
(§2) The purity of the radioligand and of the various agents tested was monitored by thin layer chromatography on silica gel plates.
(§3) The following procedure was adapted from Bellemann et al (Proc. Nat. Acad. Sci. 80, 2356, 1983), and Gould et al (Proc. Nat. Acad. Sci. 79, 3656, 1982).
(§4) Adult male Wistar rats weighing 250-300 g were anesthetized with carbon dioxide prior to decapitation. The brain was removed then immersed in ice-cold 0.32M sucrose and washed 2-3 times with fresh solution. Cerebral cortex was minced and homogenized (Potter-Elvehjem homogenizer) in 10 volumes of ice-cold sucrose solution. The homogenate was centrifuged (4° C.) at 1000×g for 15 minutes. The resulting supernatant was then centrifuged at 90000×g (30 minutes) and the pellet was washed twice with 20 ml ice-cold 50 mM Tris-HCl pH 7.4.
(§5) The final pellet was resuspended in 50 mM Tris-HCl pH 7.4/150 mM NaCl/1 mM CaCl2 to give a protein concentration of 4 mg/ml.
(§6) The membrane suspension was kept on ice until used. Binding assays were performed in subdued light to prevent dihydropyridine breakdown. Membrane protein (400 μg/tube) was incubated in 50 mM Tris-HCl buffer (pH 7.4)/150 mM NaCl/1 mM CaCl2 with the indicated concentrations of radioligand and test compounds or known calcium antagonists, in a total volume of 2 ml. After the indicated time intervals, the reaction was terminated by rapid filtration through Whatman GF/B glass fiber filters (2.4 cm diameter) on a Millipore filter holder. The assay tube was rinsed with 2 ml ice-cold 50 mM Tris-HCl pH (7.4) and the precipitate was further washed with 2×5 ml of the same buffer.
(§7) Filters were dried under a heat lamp and were extracted with 10 ml of liquid scintillation cocktail (Toluene/Triton X-100, 2/1 containing 4 g Omnifluor/1) prior to tritium determination at 48% counting efficiency.
(§8) Assays were performed in duplicate or triplicate.
(§9) Data were expressed as percent specific [^3 H]-Nitrendipine binding relative to the established control value.
(§10) Compound activity in the [^3 H]-Nitrendipine binding assay was evaluated by using the following criteria:
(§11) 1. [^3 H]-Nitrendipine binding at 1.0 μM compound final concentration was either below 95% or above 105% of the control value determined in absence of compound.
2. […] This ratio is indicative of a dose response relationship within the compound concentration range tested, when the value differs appreciably from 1.0.

[4] = test system: rat trachea contraction induced by KCl depolarization; assay: KCl-induced rat trachea contraction; design: species or system rat (male SHR, Okamoto-Aoki); conditions: for activity at 1 µM: Rattus norvegicus, 40 min, read-out: Contraction (% max.)
Description: Spontaneously hypertensive male rats (SHR) Okamoto-Aoki Strain, weighing 300-400 g were used in this study. They were killed by bleeding after Pentobarbital anesthesia (Nembutal, Abbott Co, 40 mg/kg). Their entire trachea was quickly removed and dissected free of fat and connective tissue in Krebs-Ringer solution. A strip (4 mm×40 mm), obtained by spirally cutting the trachea, was immediately suspended in a 50 ml Krebs-Ringer solution and continuously bubbled with a O2 /CO2 (95/5) mixture. Bath temperature was maintained at 37±1° C. The composition (mM) of the Krebs-Ringer solution modified by Nghiem, was as follows: NaCl, (118.0); KCl, (4.7); CaCl2, (2.5); MgCl2, (1.18); NaHCO3, (12.5); KH2 P04, (1.18); glucose, (5.5) in bidistilled water (pH 7.4). Each strip was equilibrated under initial tension (1.5-2 g) for 1-2 hours and the bath solution changed every 30 min. A contractile or relaxant response was isometrically measured with a force-displacement transducer (Ugo-Basile) and recorded on a polygraph (Beckman).
After equilibration, KCl was added to the bath at 65 mM final concentration. This concentration produced maximum trachea contraction. Under these conditions, a plateau phase showing a tonic sustained contraction was reached within 30 minutes. Drugs were added 30 minutes after the plateau phase has been reached (final concentration=1.0 μM). […] Recordings of the residual trachea contraction were made 40 minutes after drug addition to the bathing fluid. The initial KCl induced contraction was taken as the maximum KCl response (100%). Results were expressed as % of maximal contraction. Nifedipine, Prenylamine, Flunarizine and Diltiazem were used as reference standards to validate this assay.
All 1,3-diphosphonates and drugs were dissolved in saline (0.9% NaCl) except when water insoluble, then the compounds were dissolved in 2% ethanol. The final concentration of ethanol used has been shown not to interfere with the assay.
Results are expressed as mean values±SEM, the Student's t-test was used for statistical analysis.

[5] = test system: [^3 H]-PN-200 110 (dihydropyridine) binding site of calcium channel, rat brain membranes; assay: [^3 H]-PN-200 110 binding to rat brain membranes; design: species or system rat (male Wistar); conditions: Table 1b; for Specifically bound [^3 H]-PN-200 110 % of control value: compound concentration 1.0 μM; for Bound ^3 H at 1.0 μM / Bound ^3 H at 0.1 μM: ratio of [^3 H]-PN-200 110 bound at 1.0 and 0.1 μM compound
Description: as §1
Water insoluble compounds were dissolved in absolute ethanol to give 10 mM or 2.5 mM stock solutions. Suitable dilutions were made in 50 mM Tris-HCl buffer (pH 7.4) containing 150 mM NaCl and 1 mM CaCl2. The ethanol concentration in the final assay never exceeded 0.1%.
as §2, §3, §4, §5, §6, §7, §8, §9, §10, §11
2. The ratio obtained by dividing the amount of specifically found [^3 H]-Nitrendipine at 1.0 μM compound final concentration by the value obtained at 0.1 μM test compound, was smaller than 0.9 or greater than 1.1. This ratio is indicative of a dose response relationship within the compound concentration range tested, when the value differs appreciably from 1.0.
Note: In some experiments [^3 H]-PN200 110, a new and commercially available specific dihydropyridine was used instead of [^3 H]-Nitrendipine.

[6] = Rattus norvegicus, iv, read-out: Decrease in mean blood pressure (% pretest)

Row | Structure (SMILES) | Specifically bound [^3 H]-Nitrendipine % of control value [3] | Bound ^3 H at 1.0 μM / Bound ^3 H at 0.1 μM [3] | inhibition in vivo at 0.5 mg/kg [1, 6] [%] | inhibition in vivo at 1.5 mg/kg [1, 6] [%] | further results
1 | C[C@H](CS)C(=O)N1CCC[C@H]1C(=O)O [Captopril, reference compound] |  |  |  |  | inhibition in vivo at 1 mg/kg [1, 6]: 0%
2 | C(=C\c1ccccc1)/CN1CCN(C(c2ccccc2)c2ccccc2)CC1 [Cinnarizine] |  |  |  |  | effect on [^3 H]-Nitrendipine binding (in words) [2]: reduce [^3 H]-Nitrendipine binding affinity
3 | CCOP(=O)(CC(Cc1ccccc1)CP(=O)(OCC)OCC)OCC [Compound 25, Tetraethyl 2-benzyl-1,3-propylidenediphosphonate] | 100 % of control value | 1.060 | 23.2 ± 2.2 | 41.4 ± 1 | activity at 1 µM [4]: 53 ± 2.5%; activity on KCl-induced trachea contraction (in words) ([4]; final concentration 1.0 μM): potent pharmacological activity
4 | CCOP(=O)(CC(CCc1ccccc1)CP(=O)(OCC)OCC)OCC [Compound 26] | 89 % of control value | 1.018 | 18.1 ± 3 | 41.6 ± 1.3 | 
5 | CCOP(=O)(CC(CCCc1ccccc1)CP(=O)(OCC)OCC)OCC [Compound 27] | 95 % of control value | 0.982 | 25.6 ± 2.2 | 35 ± 4.7 | 
6 | CCOP(=O)(CC(Cc1ccc(Cl)cc1)CP(=O)(OCC)OCC)OCC [Compound 30] | 99 % of control value | 1.003 | 17 | 34.4 ± 5.1 | activity at 1 µM [4]: 90%
7 | CCOP(=O)(CC(CCOc1ccccc1)CP(=O)(OCC)OCC)OCC [Compound 33] |  |  | 13.2 | 16 ± 0.6 | 
8 | CCOP(=O)(CC(Cc1cc(OC)c(OC)c(OC)c1)CP(=O)(OCC)OCC)OCC [Compound 36] | 100 % of control value | 0.966 | 39.9 ± 1.6 |  | 
9 | CCCOP(=O)(CC(CCOc1ccccc1)CP(=O)(OCCC)OCCC)OCCC [Compound 52] |  |  |  |  | Specifically bound [^3 H]-PN-200 110 % of control value [5]: 9 % of control value; Bound ^3 H at 1.0 μM / Bound ^3 H at 0.1 μM [5]: 0.227
10 | CCCCOP(=O)(CC(CCOc1cc(C)ccc1C)CP(=O)(OCCCC)OCCCC)OCCCC [Compound 77] |  |  |  |  | Specifically bound [^3 H]-PN-200 110 % of control value [5]: 19 % of control value; Bound ^3 H at 1.0 μM / Bound ^3 H at 0.1 μM [5]: 0.337
11 | CCCCOP(=O)(CC(Cc1cc(OC)c(OC)c(OC)c1)CP(=O)(OCCCC)OCCCC)OCCCC [Compound 82] | 90 % of control value | 0.886 | 40.1 ± 3.2 |  | activity at 1 µM [4]: 80 ± 4%; hypotensive activity (in words) ([1]; acute i.v., Table 4): hypotensive activity superior to that of classical hypotensive drugs and of the calcium antagonists used as references
12 | CCCCOP(=O)(CC(CCCc1ccc([N+](=O)[O-])cc1[N+](=O)[O-])CP(=O)(OCCCC)OCCCC)OCCCC [Compound 98] |  |  |  |  | Specifically bound [^3 H]-PN-200 110 % of control value [5]: 19 % of control value; Bound ^3 H at 1.0 μM / Bound ^3 H at 0.1 μM [5]: 0.780
